# What was measured:
# Format in all cases: in vivo
# [1] = test system: corn (Zea mays); test: Test A preemergence soil spray, visual injury rating 0-100; conditions: 10 days
# Method in brief: (§1)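 Greenhouse test: loam/sand pots received a surfactant-containing formulation, as a preemergence directed soil spray or a postemergence spray on young plants. Injury was judged visually at day 10 relative to untreated controls.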
# [2] = test system: kochia (Bassia scoparia); test: as above; conditions: 10 days
# Method in brief: as §1
# [3] = test system: palmer (palmer amaranth, palmer pigweed, Amaranthus palmeri); test: as above; conditions: 10 days
# Method in brief: as §1
# [4] = test system: blackgrass (Alopecurus myosuroides); test: as above; conditions: 10 days
# Method in brief: as §1
# [5] = test system: barnyardgrass (Echinochloa crus-galli); test: as above; conditions: 10 days
# Method in brief: as §1
# [6] = test system: green foxtail (Setaria viridis); test: as above; conditions: 10 days
# Method in brief: as §1
# [7] = test system: ryegrass, Italian (italian ryegrass, Lolium multiflorum); test: as above; conditions: 10 days
# Method in brief: as §1
# [8] = test system: oat, wild (wild oat, Avena fatua); test: as above; conditions: 10 days
# Method in brief: as §1
# [9] = test system: soybean (Glycine max); test: as above; conditions: 10 days
# Method in brief: as §1
# [10] = test system: wheat (Triticum aestivum); test: as above; conditions: 10 days
# Method in brief: as §1
# [11] = test system: ragweed (common ragweed, Ambrosia artemisiifolia); test: as above; conditions: 10 days
# Method in brief: as §1
# [12] = test system: corn (Zea mays); test: Test A postemergence application, visual injury rating 0-100
# Method in brief: as §1
# [13] = test system: kochia (Bassia scoparia); test: as above
# Method in brief: as §1
# [14] = test system: palmer (palmer amaranth, palmer pigweed, Amaranthus palmeri); test: as above
# Method in brief: as §1
# [15] = test system: blackgrass (Alopecurus myosuroides); test: as above
# Method in brief: as §1
# [16] = test system: barnyardgrass (Echinochloa crus-galli); test: as above
# Method in brief: as §1
# [17] = test system: green foxtail (Setaria viridis); test: as above
# Method in brief: as §1
# [18] = test system: ryegrass, Italian (italian ryegrass, Lolium multiflorum); test: as above
# Method in brief: as §1
# [19] = test system: oat, wild (wild oat, Avena fatua); test: as above
# Method in brief: as §1
# [20] = test system: soybean (Glycine max); test: as above
# Method in brief: as §1
# [21] = test system: wheat (Triticum aestivum); test: as above
# Method in brief: as §1
# [22] = test system: horseweed (Erigeron canadensis); test: as above; conditions: Postemergence, 16 g ai/ha, greenhouse 10 days; 0 no effect, 100 complete control
# Method in brief: as §1
# [23] = test system: ragweed (common ragweed, Ambrosia artemisiifolia); test: as above
# Method in brief: as §1
# [24] = test system: sedge, umbrella (small-flower umbrella sedge, Cyperus difformis); test: Test B flooded paddy test, visual plant response rating 0-100; conditions: 250 g ai/ha, Flood, applied to paddy water, evaluated after 13 days
# Method in brief: (§2)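 Visual scores versus untreated controls were recorded 13 days after treatment of greenhouse-held plants. At the 2-leaf stage, pots were flooded 3 cm above the soil surface and compounds added straight to the water.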
# [25] = test system: barnyardgrass (Echinochloa crusgalli); test: as above; conditions: 250 g ai/ha, Flood, applied to paddy water, evaluated after 13 days
# Method in brief: as §2
# [26] = test system: rice (Oryza sativa); test: as above; conditions: 250 g ai/ha, Flood, applied to paddy water, evaluated after 13 days
# Method in brief: as §2
# [27] = test system: ducksalad (Heteranthera limosa); test: as above; conditions: 250 g ai/ha, Flood, applied to paddy water, evaluated after 13 days
# Method in brief: as §2
# [28] = 62 g ai/ha, 0 = no effect, 100 = complete control
# [29] = 62 g ai/ha, postemergence, 10 days, 0 = no effect, 100 = complete control
# [30] = Postemergence, 16 g ai/ha, greenhouse 10 days, 0 no effect, 100 complete control
structure (smiles),measurement,setting,value
CCOC(=O)C1=CCC(NC(=O)C2(C)CN(c3cc(Cl)cc(Cl)c3)C(=O)O2)C1 (stereo not shown) [Compound 113],Corn plant response rating,"[1]; 16 g ai/ha, 0 to 100 scale",0
same,Corn plant response rating (0-100),[1]; [28],0
same,Kochia plant response rating,"[2]; 16 g ai/ha, 0 to 100 scale",0
same,Kochia plant response rating (0-100),[2]; [28],0
same,"Pigweed, Palmer plant response rating","[3]; 16 g ai/ha, 0 to 100 scale",0
same,"Pigweed, Palmer plant response rating (0-100)",[3]; [28],20
same,Blackgrass plant response rating,"[4]; 16 g ai/ha, 0 to 100 scale",0
same,Blackgrass plant response rating (0-100),[4]; [28],0
same,Barnyardgrass plant response rating,"[5]; 16 g ai/ha, 0 to 100 scale",0
same,Barnyardgrass plant response rating (0-100),[5]; [28],0
same,"Foxtail, Green plant response rating","[6]; 16 g ai/ha, 0 to 100 scale",0
same,"Foxtail, Green plant response rating (0-100)",[6]; [28],0
same,"Ryegrass, Italian plant response rating","[7]; 16 g ai/ha, 0 to 100 scale",0
same,"Ryegrass, Italian plant response rating (0-100)",[7]; [28],0
same,"Oat, Wild plant response rating","[8]; 16 g ai/ha, 0 to 100 scale",0
same,"Oat, Wild plant response rating (0-100)",[8]; [28],0
same,Soybean plant response rating,"[9]; 16 g ai/ha, 0 to 100 scale",0
same,Soybean plant response rating (0-100),[9]; [28],0
same,Wheat plant response rating,"[10]; 16 g ai/ha, 0 to 100 scale",0
same,Wheat plant response rating (0-100),[10]; [28],0
same,Ragweed plant response rating,"[11]; 16 g ai/ha, 0 to 100 scale",0
same,Ragweed plant response rating (0-100),[11]; [28],0
same,Corn plant response rating (0-100),[12]; [29],20
same,Corn plant response rating (0 to 100 scale),[12]; [30],0
same,Kochia plant response rating (0-100),[13]; [29],0
same,Kochia plant response rating (0 to 100 scale),[13]; [30],0
same,"Pigweed, Palmer plant response rating (0-100)",[14]; [29],10
same,"Pigweed, Palmer plant response rating (0 to 100 scale)",[14]; [30],0
same,Blackgrass plant response rating (0-100),[15]; [29],20
same,Blackgrass plant response rating (0 to 100 scale),[15]; [30],0
same,Barnyardgrass plant response rating (0-100),[16]; [29],10
same,Barnyardgrass plant response rating (0 to 100 scale),[16]; [30],0
same,"Foxtail, Green plant response rating (0-100)",[17]; [29],20
same,"Foxtail, Green plant response rating (0 to 100 scale)",[17]; [30],0
same,"Ryegrass, Italian plant response rating (0-100)",[18]; [29],0
same,"Ryegrass, Italian plant response rating (0 to 100 scale)",[18]; [30],0
same,"Oat, Wild plant response rating (0-100)",[19]; [29],0
same,"Oat, Wild plant response rating (0 to 100 scale)",[19]; [30],0
same,Soybean plant response rating (0-100),[20]; [29],0
same,Soybean plant response rating (0 to 100 scale),[20]; [30],0
same,Wheat plant response rating (0-100),[21]; [29],0
same,Wheat plant response rating (0 to 100 scale),[21]; [30],0
same,Horseweed plant response rating (0 to 100 scale),[22],0
same,Ragweed plant response rating (0-100),[23]; [29],30
same,Ragweed plant response rating (0 to 100 scale),[23]; [30],0
same,"Plant response rating, Sedge, Umbrella (0 to 100 scale, 0 is no effect and 100 is complete control)",[24],0
same,"Plant response rating, Barnyardgrass (0 to 100 scale, 0 is no effect and 100 is complete control)",[25],0
same,"Plant response rating, Rice (0 to 100 scale, 0 is no effect and 100 is complete control)",[26],0
same,"Plant response rating, Ducksalad (0 to 100 scale, 0 is no effect and 100 is complete control)",[27],0

# Source: US20260285850A1, “SUBSTITUTED OXAZOLIDINONES AND IMIDAZOLINONES AS HERBICIDES” (FMC CORPORATION, priority 2023, published 2026)
